{
  "source": "patent US20230322865A1",
  "about": "(priority 2020, published 2023)",
  "key": {"peptide-specific T-cells": {"tested_on": "peptide-specific T-cells", "assay": "Self-vaccination of a healthy volunteer with SARS-CoV-2-derived peptides, XS15 and Montanide", "assay_type": "in vivo, human", "from_the_text": "Development of antibody-dependent enhancement (ADE) antibodies has been identified as potential risk for infected patients after vaccination approaches; see Graham B S. Rapid COVID-19 vaccine development. Science. 2020. In contrast to other classical vaccines aiming to induce an antibody-response to prevent viral infections the CoVac-1 vaccine is designed to induce SARS-CoV-2 specific T-cells. […] Therefore, there is compared to other vaccine approaches only minimal risk of induction of ADE antibodies by the CoVac-1 vaccine.\nA more current report of self-vaccination of the same individual includes the administration of SARS-CoV-2-derived peptides performed in March 2020. Here, the self-experimenting healthy volunteer used eight SARS-CoV-2-derived peptides: five predicted to bind to HLA class I molecules (CD8 peptides) and three predicted to bind to HLA-DR molecules (CD4 peptides, including two peptides from the CoVac-1 vaccine). […] About 3 weeks after a single vaccination, using a vaccine containing the mentioned synthetic peptides, Montanide and containing 50 μg XS15, strong vaccine-induced CD4^+ T-cell responses against all […] HLA-DR peptides and against the recall CMV epitope could be detected. No T-cell responses against the five predicted SARS-CoV-2 HLA class I peptides could be detected by ex vivo Interferon-γ ELISpot assay. […]"}, "[1]": {"tested_on": "peptide vaccine-specific T-cells", "assay_type": "in vivo, human", "conditions": "after one injection, preliminary"}, "[2]": {"conditions": "XS15 emulsified in Montanide ISA 51 VG"}, "[3]": {"conditions": "cited from earlier work"}, "[4]": {"tested_on": "T-cells in PBMC of patients recovered from SARS-CoV-2 infection", "assay_type": "cell-based, human"}, "[5]": {"tested_on": "T-cells of donors never exposed to SARS-CoV-2", "assay_type": "cell-based, human", "conditions": "IFN-γ ELISPOT, unexposed donors"}},
  "note": "Peptide text beside a SMILES is read from it. * marks the point of attachment. Propyl(2R-PamO,3-PamO) = CCCCCCCCCCCCCCCC(=O)OC[C@H](C*)OC(=O)CCCCCCCCCCCCCCC; Palmitoyl = CCCCCCCCCCCCCCCC(=O)*",
  "data": [
    {"molecule": "CC(C)C[C@H](NC(=O)[C@@H](NC(=O)[C@H](CO)NC(=O)[C@H](Cc1ccc(O)cc1)NC(=O)[C@H](CC(=O)O)NC(=O)[C@H](C)NC(=O)[C@@H](N)C(C)C)C(C)C)C(=O)N[C@@H](Cc1ccc(O)cc1)C(=O)N[C@@H](CC(N)=O)C(=O)N[C@@H](CO)C(=O)N[C@@H](C)C(=O)N[C@@H](CO)C(=O)N[C@@H](Cc1ccccc1)C(=O)N[C@@H](CO)C(=O)N[C@H](C(=O)O)[C@@H](C)O", "note": "[SEQ ID NO: 6]", "values": [
      {"measurement": "antibody induction against vaccine peptide", "setting": "peptide-specific T-cells", "value": "no antibody induction was observed"}
    ]},
    {"molecule": "CCCCCCCCCCCCCCCC(=O)N[C@@H](CSC[C@@H](COC(=O)CCCCCCCCCCCCCCC)OC(=O)CCCCCCCCCCCCCCC)C(=O)NCC(=O)N[C@@H](CC(=O)O)C(=O)N1CCC[C@H]1C(=O)N[C@@H](CCCCN)C(=O)N[C@@H](Cc1c[nH]cn1)C(=O)N1CCC[C@H]1C(=O)N[C@@H](CCCCN)C(=O)N[C@@H](CO)C(=O)N[C@@H](Cc1ccccc1)C(=O)O", "note": "[XS15] (Palmitoyl-C(Propyl(2R-PamO,3-PamO))GDPKHPKSF-OH; C-terminus assumed)", "values": [
      {"measurement": "Induction of T-cell responses against vaccine peptides, % of healthy volunteer (HV) and patients", "setting": "[1]", "value": 100, "unit": "%"},
      {"measurement": "Persistence of induced immune responses", "setting": "[2]", "value": "more than 1.5 years"},
      {"measurement": "Persistence of vaccinated peptides in granuloma on vaccination site", "setting": "[2]", "value": "at least 7 weeks"},
      {"measurement": "Granuloma volume at injection site (ultrasound)", "setting": "[3]; 80 μg XS15, days 17 and 41", "value": "about 8 ml"},
      {"measurement": "Ex vivo T-cell responses in peripheral blood detectable", "setting": "[3]; single vaccination", "value": "more than one year"}
    ]},
    {"molecule": "ASAFFGMSRIGMEVT (SARS-CoV-2) [SEQ ID NO: 5, SARS-CoV-2 nucleocapsid-derived HLA-DR peptide]", "values": [
      {"measurement": "SARS cohort frequency [%]", "setting": "[4]", "value": 52, "unit": "%"},
      {"measurement": "SARS cohort pos/tested", "setting": "[4]", "value": "12/23"},
      {"measurement": "PRE cohort frequency [%]", "setting": "[5]", "value": 6, "unit": "%"},
      {"measurement": "PRE cohort pos/tested", "setting": "[5]", "value": "1/18"}
    ]},
    {"molecule": "ASWFTALTQHGKEDL (SARS-CoV-2) [SEQ ID NO: 3, SARS-CoV-2 nucleocapsid-derived HLA-DR peptide]", "values": [
      {"measurement": "SARS cohort frequency [%]", "setting": "[4]", "value": 59, "unit": "%"},
      {"measurement": "SARS cohort pos/tested", "setting": "[4]", "value": "13/22"},
      {"measurement": "PRE cohort frequency [%]", "setting": "[5]", "value": 6, "unit": "%"},
      {"measurement": "PRE cohort pos/tested", "setting": "[5]", "value": "1/18"}
    ]},
    {"molecule": "FYVYSRVKNLNSSRV (SARS-CoV-2) [SEQ ID NO: 9, SARS-CoV-2 envelope protein-derived HLA-DR peptide]", "values": [
      {"measurement": "SARS cohort frequency [%]", "setting": "[4]", "value": 50, "unit": "%"},
      {"measurement": "SARS cohort pos/tested", "setting": "[4]", "value": "11/22"},
      {"measurement": "PRE cohort frequency [%]", "setting": "[5]", "value": 11, "unit": "%"},
      {"measurement": "PRE cohort pos/tested", "setting": "[5]", "value": "2/19"}
    ]},
    {"molecule": "ITRFQTLLALHRSYL [SEQ ID NO: 7]", "values": [
      {"measurement": "SARS cohort frequency [%]", "setting": "[4]", "value": 55, "unit": "%"},
      {"measurement": "SARS cohort pos/tested", "setting": "[4]", "value": "12/22"},
      {"measurement": "PRE cohort frequency [%]", "setting": "[5]", "value": 5, "unit": "%"},
      {"measurement": "PRE cohort pos/tested", "setting": "[5]", "value": "1/20"}
    ]},
    {"molecule": "KDGIIWVATEGALNT (SARS-CoV-2) [SEQ ID NO: 1, SARS-CoV-2 nucleocapsid-derived HLA-DR peptide]", "values": [
      {"measurement": "SARS cohort frequency [%]", "setting": "[4]", "value": 91, "unit": "%"},
      {"measurement": "SARS cohort pos/tested", "setting": "[4]", "value": "20/22"},
      {"measurement": "PRE cohort frequency [%]", "setting": "[5]", "value": 44, "unit": "%"},
      {"measurement": "PRE cohort pos/tested", "setting": "[5]", "value": "8/18"}
    ]},
    {"molecule": "LLLLDRLNQLESKMS (SARS-CoV-2) [SEQ ID NO: 4, SARS-CoV-2 nucleocapsid-derived HLA-DR peptide]", "values": [
      {"measurement": "SARS cohort frequency [%]", "setting": "[4]", "value": 64, "unit": "%"},
      {"measurement": "SARS cohort pos/tested", "setting": "[4]", "value": "14/22"},
      {"measurement": "PRE cohort frequency [%]", "setting": "[5]", "value": 6, "unit": "%"},
      {"measurement": "PRE cohort pos/tested", "setting": "[5]", "value": "1/17"}
    ]},
    {"molecule": "RWYFYYLGTGPEAGL (SARS-CoV-2) [SEQ ID NO: 2, SARS-CoV-2 nucleocapsid-derived HLA-DR peptide]", "values": [
      {"measurement": "SARS cohort frequency [%]", "setting": "[4]", "value": 73, "unit": "%"},
      {"measurement": "SARS cohort pos/tested", "setting": "[4]", "value": "16/22"},
      {"measurement": "PRE cohort frequency [%]", "setting": "[5]", "value": 6, "unit": "%"},
      {"measurement": "PRE cohort pos/tested", "setting": "[5]", "value": "1/18"}
    ]},
    {"molecule": "SKWYIRVGARKSAPL [SEQ ID NO: 10]", "values": [
      {"measurement": "SARS cohort frequency [%]", "setting": "[4]", "value": 68, "unit": "%"},
      {"measurement": "SARS cohort pos/tested", "setting": "[4]", "value": "15/22"},
      {"measurement": "PRE cohort frequency [%]", "setting": "[5]", "value": 25, "unit": "%"},
      {"measurement": "PRE cohort pos/tested", "setting": "[5]", "value": "4/16"}
    ]}
  ]
}
